According to patent publication US20070078262A1, “Thiomorpholino steroid compounds, the use thereof for the preparation of meiosis-regulating medicaments and method for the preparation thereof” (SCHERING AKTIENGESELLSCHAFT, priority 2003, published 2007):
In brackets after ≈: the same amount, converted by molar mass.

Assays:
[1] = system: Cumulus Enclosed Oocytes (CEOs); assay: Cumulus enclosed oocyte assay (meiosis activation in Hx-medium); format: cell-based, mice (C57BL/6J×DBA/2J F1)
From the text: Activation of MI arrested oocytes can be assessed by the disappearance of the germinal vesicle (GV). The disappearance of the GV, called germinal vesicle breakdown (GVB) is followed by the extrusion of the first polar body (PB) (C. Grøndahl, J. L. Ottesen, M. Lessi, P. Faarup, A. Murray, F C Grønvald, C. Hegele-Hartung, I. Ahnfelt-Rønne, “Meiosis-activating sterol promotes resumption of meiosis in mouse oocytes cultured in vitro in contrast to related oxysterols”, Biol. Reprod., 58, 1297-1302 (1998); C. Hegele-Hartung, J. Kuhnke, M. Lessi, C. Grøndahl, J. Ottesen, H. M. Beier, S. Eisner, U. Eichenlaub-Ritter, “Nuclear and cytoplasmic maturation of mouse oocytes after treatment with synthetic meiosis-activating sterol in vitro”, Biol. Reprod., 61, 1362-1372 (1999)).
Cumulus Enclosed Oocytes (CEOs) were obtained from immature female mice (C57BL/6J×DBA/2J F1) weighing 13-16 grams, that were kept under controlled temperature (20-22° C.), light (lights on 06:00-18:00) and relative humidity (50-70%). The mice received an intra-peritoneal injection of 0.2 ml gonadotropins containing 20 IU FSH. 48 hours later the animals were killed by cervical dislocation. The ovaries were dissected out and the oocytes were isolated in Hx-medium (see below) under a stereomicroscope by manual rupture of the follicles using a pair of 27-gauge needles. Cumulus enclosed oocytes displaying an intact germinal vesicle were placed in α-minimum essential medium (α-MEM without ribonucleosides supplemented with 8 mg/ml Human Serum Albumin (HSA), 0.23 mM pyruvate, 2 mM glutamine, 100 IU/ml penicillin and 100 μg/ml streptomycin). To maintain the oocytes in the germinal vesicle stage this medium was supplemented with 3 mM hypoxanthine, designated as Hx-medium.
The CEOs (35-45 CEOs in 0.4 ml Hx-medium) were cultured in a humidified atmosphere of 5% CO2 in air for 24 hours at 37° C. One control well (identical medium with no addition of test compound) was always cultured simultaneously with test wells.
By the end of the culture period the number of CEOs with germical vesicle (GV), germinal vesicle breakdown (GVB) and polar bodies (PB), respectively, were counted. The % GVB, defined as the percentage of CEOs undergoing GVB per total number of CEOs in that well, was calculated as: % GVB=(number of GVB+number of PB/total number of CEOs)×100
The % PB was defined as the percentage of CEOs displaying one extruded polar body per total number of CEOs in that well.
For each compound two experiments were performed and the results compared to Hx-medium as a control and FF-MAS at a concentration of 10 μM.

mouse oocytes = assay: In vitro fertilization (IVF) after in vitro maturation of oocytes; format: cell-based, mice (C57BL/6J×DBA/2J F1)
Experimental: Changes in the subsequent IVF are therefore probably due to effects of the test compounds on cytoplasmic maturation.
Immature female mice (C57BL/6J×DBA/2J F1) in the age of 21-24 days were used as oocyte donors. Animals were given an i.p. injection of 10 IU pregnant mare serum gonadotropin (PMSG) to induce follicular growth. Animals were killed by cervical dislocation 48 hours later and the ovaries were dissected out. As sperm donors eight week old male mice (C57BL/6J×DBA/2J F1) were used.
Oocytes were isolated from the ovaries by manual rupture of the follicles using a pair of 27-gauge needles. Spherical naked oocytes (NkO) and CEOs displaying an intact GV were selected and placed in α-minimum essential medium (α-MEM without ribonucleosides, Gibco BRL, Gaithersburg; Cat. No. 22561) supplemented with 8 mg/ml human serum albumin (HSA), 0.23 mM pyruvate, 2 mM glutamine, 100 IU/ml penicillin and 100 μg/ml streptomycin.
The oocytes were rinsed three times in culture medium without oil overlay in 4-well multidishes containing 0.4 ml of the respective oocyte culture medium.
The oocyte culture medium was supplemented with 6.4% Fetal Bovine Serum (FBS). Solutions of novel compound IA and of the two compounds in comparison as mentioned were prepared from a stock solution containing 1 mg/ml of compound dissolved in absolute ethanol. The control group was cultured with a corresponding amount of ethanol.
After a culture time of 18-19 hours oocytes were further processed for in vitro fertilization. […] Oocytes were briefly washed without any test compound and subsequently transferred to the insemination dishes prepared in advance, which contained approximately 600.000 capacitated sperm cells per 500 μl IVF medium (obtained from the epididymides of male mice). The dishes were then incubated under defined gas conditions (5% CO2 in air) at 37° C. in a modified α-MEM IVF medium supplemented with 8 mg/ml HSA, 0.23 mM pyruvate, 100 IU penicillin/ml and 100 μg streptomycin/ml as described above for oocyte maturation.
Examination of the oocytes was carried out 22-24 hours after insemination in order to check fertilization and to record the number of pronucleus (PN) and 2-cell stage embryos. The fertilization rate was determined as the number of oocytes that had reached the PN or 2-cell embryo stage, relative to the total number inseminated.

physchem = settings: water

C[C@H](CN1CCSCC1)[C@H]1CC=C2C3=C(CC[C@@]21C)[C@@]1(C)CC[C@H](O)C(C)(C)[C@@H]1CC3 [Compound IA, (20S)-20-[(thiomorpholin-4-yl)methyl]-4,4-dimethyl-5α-pregna-8,14-dien-3β-ol]
efficiency of meiosis activation among the compounds tested ([1]; CEOs in the presence of Hx): the most efficient compound tested
meiosis activation in CEOs monitored by GVB and PB (FIG. 2) ([1]; at 1 μM (p<0.01; n=10), 3 μM (p<0.05; n=7) and 10 μM (p<0.001; n=6)): significantly improved meiosis activation
effect on 2-cell and blastocyst rate (mouse oocytes; already at 0.1 μM, tends to be even higher at 1 μM): beneficial effect
fertilization rates of mouse oocytes compared to vehicle control (FIG. 3) (mouse oocytes; in vitro maturation without hypoxanthine, then IVF, n=18): higher fertilization rates
solubility (physchem): ~4 µg/mL (≈ 9.01 µM)
